What was measured:
Assay type in all cases: cell-based
Microsporum canis = test: Challenge testing with pathogenic fungi in SDB; conditions: w/v % in label, visual growth in tubes; for Grade code, Pathogenic Fungi, M. canis, 14 Days: 14 days incubation; for Grade code, Pathogenic Fungi, M. canis, 30 Days: 30 days incubation
Description: (§1) Both M. canis and Trichophyton rubrum were grown on Sabouraud dextrose broth (SDB) (pH 5.6), while Malassezia fufur was grown in SDB supplemented with 2% (v/v) of olive oil and 0.2% (v/v) of Tween™ 80; incubation was at 22° C.±2° C. under continuous agitation by stirring for 10 days. The organisms were grown to a cell concentration of between 10^3 and 10^4 cfu/mL. The actual inoculation cell concentration of these challenges was determined by diluting in sterile buffer water and (spread-plate method) plating for enumeration.
(§2) Challenge organisms were used to inoculate tubes containing each test material (CHDM, etc) or combination of test materials, at concentrations given in Table 5, in SDB (or for M. furfur, in SDB supplemented with olive oil and Tween™ 80). The inoculations were in the amount of 1.5 mL aliquots of each culture with static incubation at 22±2° C. Subcultures were made after 3-, 14-, and 30-days incubation. All challenges were conducted in triplicate. In the case of M. canis, the growth response was assessed by the visual presence or absence of growth in the tubes; in the case of T. rubrum, a respiratory dye (0.2% w/v aqueous INT solution: 2-(4-iodophenyl)-3-(4-nitrophenyl)-5-phenyl tetrazolium chloride) was added to the tubes, turning red if the organism was viable; and, finally, in the case of M. furfur, the growth response was assessed based upon visible pellicle formation in the tubes at the meniscus. The fungal growth in each tube was assigned a grade code as follows:
(§3) 0: No visible growth 1: Some growth in tube 2: Moderate growth in tube 3: Good growth in tube 4: Extreme growth in tube
(§4) All test material concentrations are given as w/v %. The grade codes given are the average of the grade codes for duplicate or triplicate samples.
(§5) Table 5 compares the antimicrobial activity of 1,4-CHDM (AB) alone to 1,4-CHDM in combination with EDTA, phenoxyethanol (PE), and caprylyl glycol (CG). CHDM at 0.5% was tested with EDTA, and at 1.25 and 2.5% with EDTA, PE, and CG. (Note that the combination of CHDM with only EDTA was not tested against pathogenic fungi.) Results are also given for EDTA, PE, and CG alone, so the result for each mixture can be compared to the antimicrobial activity for each of its components individually. […] Possible synergies were determined by treating the grade code as an estimate of the log of the microbial count (log of cfu/mL). Log reductions can then be estimated by subtracting each grade code from the grade code for broth alone (grade code 5, except for the pathogenic fungi).

Malassezia furfur = test: Challenge testing with pathogenic fungi in SDB; conditions: SDB with olive oil and Tween 80, w/v % in label, pellicle formation; for Grade code, Pathogenic Fungi, M. furfur, 14 Days: 14 days incubation; for Grade code, Pathogenic Fungi, M. furfur, 30 Days: 30 days incubation
Description: as §1, §2, §3, §4, §5

Trichophyton rubrum = test: Challenge testing with pathogenic fungi in SDB; conditions: w/v % in label, INT respiratory dye; for Grade code, Pathogenic Fungi, T. ruburm, 3 Days: 3 days incubation; for Grade code, Pathogenic Fungi, T. ruburm, 14 Days: 14 days incubation; for Grade code, Pathogenic Fungi, T. ruburm, 30 Days: 30 days incubation
Description: as §1, §2, §3, §4, §5

Burkholderia cepacia = test: Microbial challenge testing in BPW; conditions: for Grade code, B. cepacia, 3 Days / Grade code, B. cepacia, 14 Days / Grade code, B. cepacia, 30 Days: BPW, w/v % in label, average of replicates
Description: The microorganisms used in challenge tests are given in Table 3, designated as either ATCC (American Type Culture Collection) or wild type. These wild type organisms were problematic organisms previously isolated from chemical products. In the description for each organism, the bacteria are indicated as either GN (Gram negative) or GP (Gram positive).
All of the microorganisms were grown in Tryptose Soy Broth (TSB), DIFCO™ available from Becton, Dickinson and Company, containing 1% dextrose. Aspergillus niger and Candida albicans were incubated at 22° C.±2° C. for at least 96 hours. All bacteria were incubated at 35° C.±2° C. in a humidified incubator for at least 96 hours.
The following procedure was followed to determine the amount of each challenge material (inoculum broth) required to produce a 10^8 cfu/mL challenge, which is equivalent to a final test-sample microbial concentration of 10^5 to 10^6 cfu (colony-forming units)/mL.
Using a sterile serological pipette, 1 mL of the growth from each TSB culture was transferred into tubes containing 9 mL phosphate buffer (pH 7.2) and mixed thoroughly. This process was repeated to make serial 1:10 dilutions. Then 0.1 mL of each sample and dilution was inoculated onto agar plates to produce the equivalent of a further 1:10 dilution. C. albicans and A. niger were inoculated onto SDA and bacteria were inoculated onto Plate Count Agar (PCA), DIFCO™ available from Becton, Dickinson and Company. The 0.1 mL aliquots were evenly distributed on the plates using the spread-plate technique. The spread-plate technique is performed by spreading the aliquot over the entire plate surface using a sterile spreading rod while rotating the plate with a rotary auto-plater. After the inoculum was absorbed completely, each plate was inverted and incubated (fungi at 22° C.±2° C. and bacteria at 35° C.±2° C.).
After incubation for at least 48 hours, colonies that had developed on the agar plates were counted and recorded with the corresponding dilution. If counting had to be delayed temporarily, plates were refrigerated, preferably no more than 24 hours, until they could be counted. The number of cfu/mL was determined by multiplying the count by the dilution factor for that particular plate.
Turbidity in Nepholemetric Turbidity Units (NTU) was measured for each serial dilution using the HF-Micro 100 Model Turbidimeter. For each microorganism, the plate counts were compared to the turbidity readings.
Control substrates (“broth alone”) were prepared for each microorganism separately in triplicate by adding 13.5 mL of BPW (pH 7.0) containing 1% (w/v) dextrose to each 20-mL glass tube; then adding 1.5 mL challenge material to produce a final concentration at time zero of 10^5 to 10^6 cfu/mL and a total volume of 15 mL.
Test sample substrates were prepared containing each test material (1,4-CHDM, etc) or combination of test materials at the concentrations shown in Tables 5 and 6. Sample substrates were prepared in triplicate, except those substrates containing PE or CG which were prepared in duplicate. Substrates were prepared by adding BPW containing 1% (w/v) dextrose to each 20-mL glass tube, then adding the test material in the amount appropriate to achieve the desired weight/volume percent (g/100 mL) and to obtain a total volume of BPW with dextrose and test material of 13.5 mL. Then 1.5 mL challenge material was added to produce a final concentration at time zero of 10^5 to 10^6 cfu/mL of the respective organism and a total test sample substrate volume of 15 mL.
After mixing, all challenged substrates were incubated at 35° C.±2° C. for 14 days and then at ambient room temperature.

## OCC1CCC(CO)CC1 (centres unmarked) [1,4-CHDM, 1,4-cyclohexanedimethanol]
Microsporum canis; 3 days incubation
  Grade code, Pathogenic Fungi, M. canis, 3 Days: 2
Microsporum canis; listed as 0.5% AB
  Grade code, Pathogenic Fungi, M. canis, 14 Days: 1
  Grade code, Pathogenic Fungi, M. canis, 30 Days: 1
Microsporum canis; listed as 1.25% AB
  Grade code, Pathogenic Fungi, M. canis, 14 Days: 1
  Grade code, Pathogenic Fungi, M. canis, 30 Days: 1
Microsporum canis; listed as 2.5% AB
  Grade code, Pathogenic Fungi, M. canis, 14 Days: 0
  Grade code, Pathogenic Fungi, M. canis, 30 Days: 0
Malassezia furfur; 3 days incubation
  Grade code, Pathogenic Fungi, M. furfur, 3 Days: 0
Malassezia furfur; listed as 0.5% AB
  Grade code, Pathogenic Fungi, M. furfur, 14 Days: 1
  Grade code, Pathogenic Fungi, M. furfur, 30 Days: 2
Malassezia furfur; listed as 1.25% AB
  Grade code, Pathogenic Fungi, M. furfur, 14 Days: 0
  Grade code, Pathogenic Fungi, M. furfur, 30 Days: 0
Malassezia furfur; listed as 2.5% AB
  Grade code, Pathogenic Fungi, M. furfur, 14 Days: 0
  Grade code, Pathogenic Fungi, M. furfur, 30 Days: 0
Trichophyton rubrum; listed as 0.5% AB
  Grade code, Pathogenic Fungi, T. ruburm, 3 Days: 1
  Grade code, Pathogenic Fungi, T. ruburm, 14 Days: 1
  Grade code, Pathogenic Fungi, T. ruburm, 30 Days: 1
Trichophyton rubrum; listed as 1.25% AB
  Grade code, Pathogenic Fungi, T. ruburm, 3 Days: 0
  Grade code, Pathogenic Fungi, T. ruburm, 14 Days: 0
  Grade code, Pathogenic Fungi, T. ruburm, 30 Days: 0
Trichophyton rubrum; listed as 2.5% AB
  Grade code, Pathogenic Fungi, T. ruburm, 3 Days: 0
  Grade code, Pathogenic Fungi, T. ruburm, 14 Days: 0
  Grade code, Pathogenic Fungi, T. ruburm, 30 Days: 0
Burkholderia cepacia; 0.5%, 3 days incubation
  Grade code B. cepacia: 4 (1001 to 10,000 colonies (thus 10,000 cfu/mL to 100,000 cfu/mL))
Burkholderia cepacia; 0.5%, 14 days incubation
  Grade code B. cepacia: 4 (1001 to 10,000 colonies (thus 10,000 cfu/mL to 100,000 cfu/mL))
Burkholderia cepacia; 0.5%, 30 days incubation
  Grade code B. cepacia: 4 (1001 to 10,000 colonies (thus 10,000 cfu/mL to 100,000 cfu/mL))
Burkholderia cepacia; 1.25%, 3 days incubation
  Grade code B. cepacia: 4 (1001 to 10,000 colonies (thus 10,000 cfu/mL to 100,000 cfu/mL))
Burkholderia cepacia; 1.25%, 14 days incubation
  Grade code B. cepacia: 2 (52 to 100 colonies counted (thus 520 to 1000 cfu/mL))
Burkholderia cepacia; 1.25%, 30 days incubation
  Grade code B. cepacia: 4 (1001 to 10,000 colonies (thus 10,000 cfu/mL to 100,000 cfu/mL))
Burkholderia cepacia; 2.5%, 3 days incubation
  Grade code B. cepacia: 0 (No growth detected or <1 colony (thus <10 cfu/mL))
Burkholderia cepacia; 2.5%, 14 days incubation
  Grade code B. cepacia: 0 (No growth detected or <1 colony (thus <10 cfu/mL))
Burkholderia cepacia; 2.5%, 30 days incubation
  Grade code B. cepacia: 0 (No growth detected or <1 colony (thus <10 cfu/mL))
Burkholderia cepacia; 3 days incubation, listed as 0.5% AB
  Grade code, B. cepacia, 3 Days: 4 (1001 to 10,000 colonies (thus 10,000 cfu/mL to 100,000 cfu/mL))
Burkholderia cepacia; 3 days incubation, listed as 1.25% AB
  Grade code, B. cepacia, 3 Days: 4 (1001 to 10,000 colonies (thus 10,000 cfu/mL to 100,000 cfu/mL))
Burkholderia cepacia; 3 days incubation, listed as 2.5% AB
  Grade code, B. cepacia, 3 Days: 0 (No growth detected or <1 colony (thus <10 cfu/mL))
Burkholderia cepacia; 14 days incubation, listed as 0.5% AB
  Grade code, B. cepacia, 14 Days: 4 (1001 to 10,000 colonies (thus 10,000 cfu/mL to 100,000 cfu/mL))
Burkholderia cepacia; 14 days incubation, listed as 1.25% AB
  Grade code, B. cepacia, 14 Days: 2 (52 to 100 colonies counted (thus 520 to 1000 cfu/mL))
Burkholderia cepacia; 14 days incubation, listed as 2.5% AB
  Grade code, B. cepacia, 14 Days: 0 (No growth detected or <1 colony (thus <10 cfu/mL))
Burkholderia cepacia; 30 days incubation, listed as 0.5% AB
  Grade code, B. cepacia, 30 Days: 4 (1001 to 10,000 colonies (thus 10,000 cfu/mL to 100,000 cfu/mL))
Burkholderia cepacia; 30 days incubation, listed as 1.25% AB
  Grade code, B. cepacia, 30 Days: 4 (1001 to 10,000 colonies (thus 10,000 cfu/mL to 100,000 cfu/mL))
Burkholderia cepacia; 30 days incubation, listed as 2.5% AB
  Grade code, B. cepacia, 30 Days: 0 (No growth detected or <1 colony (thus <10 cfu/mL))

## CC1(C)C(O)C(C)(C)C1O (centres unmarked) [TMCD, 2,2,4,4-tetramethyl-1,3-cyclobutanediol]
Burkholderia cepacia; 0.5%, 3 days incubation
  Grade code B. cepacia: 4 (1001 to 10,000 colonies (thus 10,000 cfu/mL to 100,000 cfu/mL))
Burkholderia cepacia; 0.5%, 14 days incubation
  Grade code B. cepacia: 4 (1001 to 10,000 colonies (thus 10,000 cfu/mL to 100,000 cfu/mL))
Burkholderia cepacia; 0.5%, 30 days incubation
  Grade code B. cepacia: 4 (1001 to 10,000 colonies (thus 10,000 cfu/mL to 100,000 cfu/mL))
Burkholderia cepacia; 1.25%, 3 days incubation
  Grade code B. cepacia: 3 (101 to 1000 colonies (thus 1000 to 10,000 cfu/mL))
Burkholderia cepacia; 1.25%, 14 days incubation
  Grade code B. cepacia: 2 (52 to 100 colonies counted (thus 520 to 1000 cfu/mL))
Burkholderia cepacia; 1.25%, 30 days incubation
  Grade code B. cepacia: 4 (1001 to 10,000 colonies (thus 10,000 cfu/mL to 100,000 cfu/mL))
Burkholderia cepacia; 2.5%, 3 days incubation
  Grade code B. cepacia: 1 (1 to 51 colonies counted (thus 10 to 510 cfu/mL))
Burkholderia cepacia; 2.5%, 14 days incubation
  Grade code B. cepacia: 0 (No growth detected or <1 colony (thus <10 cfu/mL))
Burkholderia cepacia; 2.5%, 30 days incubation
  Grade code B. cepacia: 0 (No growth detected or <1 colony (thus <10 cfu/mL))
